Legend:
[1] = system: P. aeruginosa expressing IMP-1, efflux+ (MB9798); assay type: cell-based, Pseudomonas aeruginosa; conditions: for P. aeruginosa expressing IMP-1, efflux+ (MB9798) MITC95: imipenem at 2 μg/mL, in the presence of a class A, C, D serine β-lactamase inhibitor closely related to relebactam; for Efflux ratio: ratio MITC95 PA_9798/MITC95 PA_9799
From the text: (§1) The strain background is Pseudomonas aeruginosa PAO1.

[2] = system: Klebsiella pneumoniae expressing VIM-1 (IHMA599644); assay type: cell-based; conditions: VIM-1 (IHMA599644), with imipenem 1 μg/ml, 95% inhibition of bacterial growth
Procedure, shortened: (§2)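 Colonies from overnight 35 °C blood-agar cultures were suspended in saline, diluted 1:100 into 1.1× CAMHB and exposed to test compound with or without imipenem at 1 μg/ml. After 22–24 h at 35 °C, absorbance was read to find the concentration restoring imipenem susceptibility.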

[3] = system: Escherichia coli expressing NDM-1 (CLB30005, CLB30016); assay type: cell-based; conditions: NDM-1 (CLB30016), with imipenem 1 μg/ml, 95% inhibition of bacterial growth
Procedure, shortened: as §2

[4] = system: Serratia marcescens expressing IMP-1 (CL5741); assay type: cell-based; conditions: IMP-1 (CL5741), with imipenem 1 μg/ml, 95% inhibition of bacterial growth
Procedure, shortened: as §2

[5] = system: P. aeruginosa expressing IMP-1, efflux− (MB9799); test: Efflux: concentration of MBL inhibitor which restores susceptibility to imipenem; assay type: cell-based, Pseudomonas aeruginosa; conditions: imipenem at 2 μg/mL, in the presence of a class A, C, D serine β-lactamase inhibitor closely related to relebactam
From the text: as §1

NDM-1 = NDM-1 (Klebsiella pneumoniae, UniProt C7C422); test: biochemical; assay type: biochemical; conditions: CCF2-FA substrate, 2 hours at 25° C; read-out: NDM-1 IC50
Procedure, shortened: (§3)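 Inhibitor was mixed with the metallo-β-lactamase and CCF2-FA. After 2 hours at 25° C, fluorescence of the coumarin–fluorescein cephalosporin substrate was read. IC50 was calculated with a 4-parameter fit.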

IMP-1 = IMP-1 (Serratia marcescens, UniProt P52699); test: biochemical; assay type: biochemical; conditions: CCF2-FA substrate, 2 hours at 25° C; read-out: IMP-1 IC50
Procedure, shortened: as §3

VIM-1 = VIM-1 (Pseudomonas aeruginosa (strain ATCC 15692 / DSM 22644 / CIP 104116 / JCM 14847 / LMG 12228 / 1C / PRS 101 / PAO1), UniProt A0A0F7KYQ8); test: biochemical; conditions: CCF2-FA substrate, 2 hours at 25° C
Procedure, shortened: as §3

Sequence of NDM-1 (C7C422 whole entry, looked up, species assumed): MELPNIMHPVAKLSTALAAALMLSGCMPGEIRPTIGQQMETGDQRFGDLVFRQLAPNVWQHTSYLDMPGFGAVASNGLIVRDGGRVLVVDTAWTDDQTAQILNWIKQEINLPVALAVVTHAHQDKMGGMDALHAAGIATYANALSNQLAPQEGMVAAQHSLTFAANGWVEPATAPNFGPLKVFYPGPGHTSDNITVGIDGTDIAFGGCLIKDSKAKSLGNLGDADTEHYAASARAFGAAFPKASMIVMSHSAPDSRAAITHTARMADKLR
Sequence of IMP-1 (P52699 whole entry, looked up, species assumed): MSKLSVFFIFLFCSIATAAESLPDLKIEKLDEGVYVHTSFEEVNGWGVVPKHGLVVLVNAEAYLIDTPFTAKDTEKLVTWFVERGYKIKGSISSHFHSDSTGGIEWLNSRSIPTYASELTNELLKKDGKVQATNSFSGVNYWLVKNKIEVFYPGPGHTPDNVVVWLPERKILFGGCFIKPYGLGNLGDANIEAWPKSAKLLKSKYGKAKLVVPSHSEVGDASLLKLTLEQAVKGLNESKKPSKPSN

Row | SMILES | P. aeruginosa expressing IMP-1, efflux+ (MB9798) MITC95 [1] | Efflux ratio [1] | Klebsiella pneumoniae MITC95 [2] | Escherichia coli MITC95 [3] | Serratia marcescens MITC95 [4] | P. aeruginosa expressing IMP-1, efflux− (MB9799) MITC95 [5] | IC50 (NDM-1) | IC50 (IMP-1) | IC50 (VIM-1)
1 | N#Cc1ccc(-c2ccc(S(=O)(=O)CCN)c(S(N)(=O)=O)c2-c2nnn[nH]2)c2[nH]c(N)nc12 [Example 295, 3-(2-amino-4-cyano-1H-benzo[d]imidazol-7-yl)-6-((2-aminoethyl)sulfonyl)-2-(1H-tetrazol-5-yl)benzenesulfonamide] | 1.563 µM | 1.00 | 3.125 µM | 1.563 µM | 3.125 µM | 1.563 µM | 0.116 nM | 1.22 nM | 0.105 nM
2 | NS(=O)(=O)c1c(S(=O)(=O)C2CNC2)ccc(-c2cccc3cn[nH]c23)c1-c1nnn[nH]1 [Example 297, 6-(azetidin-3-ylsulfonyl)-3-(1H-indazol-7-yl)-2-(1H-tetrazol-5-yl)benzenesulfonamide] | 1.563 µM | 2.00 | 3.125 µM | 1.563 µM | 1.563 µM | 0.7813 µM | 0.217 nM | 0.596 nM | 0.282 nM
3 | NCCS(=O)(=O)c1ccc(-c2cccc3cn[nH]c23)c(-c2nnn[nH]2)c1S(N)(=O)=O [Example 298, 6-((2-aminoethyl)sulfonyl)-3-(1H-indazol-7-yl)-2-(1H-tetrazol-5-yl) benzenesulfonamide] | 1.563 µM | 2.00 | 1.563 µM | 0.7813 µM | 1.563 µM | 0.7813 µM | 0.425 nM | 0.3 nM | 0.257 nM
4 | NS(=O)(=O)c1c(S(=O)(=O)C2CNC2)ccc(-c2cccc3[nH]c(=O)[nH]c23)c1-c1nnn[nH]1 [Example 299, 6-(azetidin-3-ylsulfonyl)-3-(2-oxo-2,3-dihydro-1H-benzo[d]imidazol-4-yl)-2-(1H-tetrazol-5-yl) benzenesulfonamide] | 3.125 µM | 1.00 | 6.25 µM | 3.125 µM | 3.125 µM | 3.125 µM | 0.188 nM | 1.45 nM | 0.302 nM
5 | NCCS(=O)(=O)c1ccc(-c2cccc3[nH]c(=O)[nH]c23)c(-c2nnn[nH]2)c1S(N)(=O)=O [Example 300, 6-((2-aminoethyl)sulfonyl)-3-(2-oxo-2,3-dihydro-1H-benzo[d]imidazol-4-yl)-2-(1H-tetrazol-5-yl) benzenesulfonamide] | 1.563 µM | 2.00 | 3.125 µM | 0.7813 µM | 1.563 µM | 0.7813 µM | 0.254 nM | 0.415 nM | 0.162 nM
6 | NS(=O)(=O)c1c(S(=O)(=O)C2CNC2)ccc(-c2cncc3[nH]c(=O)[nH]c23)c1-c1nnn[nH]1 [Example 301, 6-(azetidin-3-ylsulfonyl)-3-(2-oxo-2,3-dihydro-1H-imidazo[4,5-c]pyridin-7-yl)-2-(1H-tetrazol-5-yl)benzenesulfonamide] | 3.125 µM | 2.00 | 6.25 µM | 0.7813 µM | 3.125 µM | 1.563 µM | 0.536 nM | 2.87 nM | 0.96 nM
7 | NCCS(=O)(=O)c1ccc(-c2cccc3nc(C(=O)O)nn23)c(-c2nnn[nH]2)c1S(N)(=O)=O [Example 304, 5-(4-((2-aminoethyl)sulfonyl)-3-sulfamoyl-2-(1H-tetrazol-5-yl)phenyl)-[1,2,4]triazolo [1,5-a]pyridine-2-carb oxylic Acid] | 25 µM | 2.00 | 50 µM | 6.25 µM | 6.25 µM | 12.5 µM | 0.214 nM | 5.36 nM | 0.478 nM
8 | NCCS(=O)(=O)c1ccc(-c2cccc3[nH]c(CN)nc23)c(-c2nn[nH]n2)c1S(N)(=O)=O [Example 305, 6-((2-aminoethyl)sulfonyl)-3-(2-(aminomethyl)-1H-benzo[d]imidazol-4-yl)-2-(2H-tetrazol-5-yl)benzenesulfonamide] | 1.563 µM | 2.00 | 1.563 µM | 1.563 µM | 0.7813 µM | 0.7813 µM | 0.643 nM | 1.91 nM | 0.493 nM
9 | NCCc1nc2c(-c3ccc(S(=O)(=O)CCN)c(S(N)(=O)=O)c3-c3nn[nH]n3)cccc2[nH]1 [Example 306, 3-(2-(2-aminoethyl)-1H-benzo[d]imidazol-4-yl)-6-((2-aminoethyl)sulfonyl)-2-(2H-tetrazol-5-yl) benzenesulfonamide] | 1.563 µM | 2.00 | 1.563 µM | 0.7813 µM | 0.7813 µM | 0.7813 µM | 0.848 nM | 2.84 nM | 0.374 nM
10 | NCCS(=O)(=O)c1ccc(-c2cccc3[nH]c(C(F)(F)CN)nc23)c(-c2nn[nH]n2)c1S(N)(=O)=O [Example 307, 3-(2-(2-amino-1,1-difluoroethyl)-1H-benzo[d]imidazol-4-yl)-6-((2-aminoethyl)sulfonyl)-2-(2H-tetrazol-5-yl) benzenesulfonamide] | 0.3906 µM | 1.00 | 0.7813 µM | 0.7813 µM | 0.7813 µM | 0.3906 µM | 0.0372 nM | 0.0868 nM | 0.0306 nM
11 | NCCS(=O)(=O)c1ccc(-c2cccc3[nH]c(C(F)(F)F)nc23)c(-c2nn[nH]n2)c1S(N)(=O)=O [Example 308, 6-((2-aminoethyl)sulfonyl)-2-(2H-tetrazol-5-yl)-3-(2-(trifluoromethyl)-1H-benzo[d]imidazol-4-yl)benzenesulfonamide] | 6.25 µM | 4.00 | 3.125 µM | 3.125 µM | 3.125 µM | 1.563 µM | 0.17 nM | 0.56 nM | 0.219 nM
12 | NS(=O)(=O)c1c(S(=O)(=O)C2CNC2)ccc(-c2cccc3sc(O)nc23)c1-c1nn[nH]n1 [Example 309, 6-(azetidin-3-ylsulfonyl)-3-(2-hydroxybenzo[d]thiazol-4-yl)-2-(2H-tetrazol-5-yl)benzenesulfonamide] | 3.125 µM | 2.00 | 3.125 µM | 0.7813 µM | 3.125 µM | 1.563 µM | 0.0885 nM | 0.256 nM | 0.145 nM
13 | Nc1ncccc1-c1cc(-c2ccc(S(=O)(=O)C3CNC3)c(S(N)(=O)=O)c2-c2nnn[nH]2)ccn1 [Example 310, 3-(2′-Amino-[2,3′-bipyridin]-4-yl)-6-(azetidin-3-ylsulfonyl)-2-(1H-tetrazol-5-yl)benzenesulfonamide] | 25 µM | 15.99 | 3.125 µM | 1.563 µM | 1.563 µM | 1.563 µM | 1.04 nM | 2.3 nM | 0.319 nM

From patent publication US10227331B2 (priority 2015, dated 2019)
